One test has as its target JAK-2 enzyme (Homo sapiens, UniProt O60674). Nature of the test: JAK2 Inhibition Assay. Format: biochemical. The note with it: 15 μM poly(Glu)4Tyr, 12 μM ATP, 25° C. As for the experimental part: (§1) Compounds were screened for their ability to inhibit JAK3 using the assay shown below. Reactions were carried out in a kinase buffer containing 100 mM HEPES (pH 7.4), 1 mM DTT, 10 mM MgCl2, 25 mM NaCl, and 0.01% BSA. Substrate concentrations in the assay were 5 μM ATP (200 uCi/μmole ATP) and 1 μM poly(Glu)4Tyr. Reactions were carried out at 25° C. and 1 nM JAK3.
(§2) To each well of a 96 well polycarbonate plate was added 1.5 μl of a candidate JAK3 inhibitor along with 50 μl of kinase buffer containing 2 μM poly(Glu)4Tyr and […]. This was then mixed and […] of kinase buffer containing 2 nM JAK3 enzyme was added to start the reaction. After 20 minutes at room temperature (25° C.), the reaction was stopped with 50 μl of 20% trichloroacetic acid (TCA) that also contained 0.4 mM ATP. The entire contents of each well were then transferred to a 96 well glass fiber filter plate using a TomTek Cell Harvester. After washing, 60 μl of scintillation fluid was added and ^33P incorporation detected on a Perkin Elmer TopCount.
The assays were as described above in Example 36 except that JAK-2 enzyme was used, the final poly(Glu)4Tyr concentration was 15 μM, and final ATP concentration was 12 μM.
(§3) Tables 5 and 6 depict enzyme inhibition data (Ki) for certain exemplary compounds. Compound numbers in Tables 5 and 6 correspond to those compounds depicted in Tables 1 and 2, respectively.

For a further test, the target named is T1, JAK3 (Homo sapiens, UniProt P52333).
T1 sequence (P52333 1-1124): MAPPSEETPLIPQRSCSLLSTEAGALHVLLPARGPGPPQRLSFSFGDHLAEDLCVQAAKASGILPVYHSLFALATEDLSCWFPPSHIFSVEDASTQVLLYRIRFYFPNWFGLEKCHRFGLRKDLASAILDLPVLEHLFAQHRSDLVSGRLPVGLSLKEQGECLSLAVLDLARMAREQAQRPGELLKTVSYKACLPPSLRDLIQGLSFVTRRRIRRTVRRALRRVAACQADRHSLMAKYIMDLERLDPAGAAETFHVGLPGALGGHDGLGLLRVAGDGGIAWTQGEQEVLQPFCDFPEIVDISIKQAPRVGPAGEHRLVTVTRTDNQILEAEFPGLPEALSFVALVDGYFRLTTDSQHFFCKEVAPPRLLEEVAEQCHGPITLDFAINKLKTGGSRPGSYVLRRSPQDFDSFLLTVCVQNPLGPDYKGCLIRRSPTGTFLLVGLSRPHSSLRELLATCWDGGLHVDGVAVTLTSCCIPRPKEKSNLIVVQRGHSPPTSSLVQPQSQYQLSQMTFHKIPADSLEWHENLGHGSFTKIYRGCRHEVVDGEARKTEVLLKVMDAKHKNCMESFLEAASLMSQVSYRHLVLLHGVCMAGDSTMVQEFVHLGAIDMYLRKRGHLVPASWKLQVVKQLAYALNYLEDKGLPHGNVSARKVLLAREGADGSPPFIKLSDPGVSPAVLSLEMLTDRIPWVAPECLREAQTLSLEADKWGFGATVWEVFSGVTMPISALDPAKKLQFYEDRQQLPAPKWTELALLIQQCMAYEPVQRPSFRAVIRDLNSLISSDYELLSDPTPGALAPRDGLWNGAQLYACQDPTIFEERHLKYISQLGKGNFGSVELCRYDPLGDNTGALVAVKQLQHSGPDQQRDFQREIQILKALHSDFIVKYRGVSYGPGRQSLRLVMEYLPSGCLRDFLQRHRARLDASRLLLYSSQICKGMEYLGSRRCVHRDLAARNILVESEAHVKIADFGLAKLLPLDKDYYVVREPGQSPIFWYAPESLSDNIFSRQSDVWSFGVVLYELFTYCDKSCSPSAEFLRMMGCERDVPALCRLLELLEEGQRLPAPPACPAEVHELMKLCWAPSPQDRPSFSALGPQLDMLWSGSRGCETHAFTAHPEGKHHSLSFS
Nature of the test: JAK3 Inhibition Assay. Format: biochemical. The following applies: 1 μM poly(Glu)4Tyr, 5 μM ATP, 1 nM JAK3, 25° C.; read-out: JAK3 enzyme inhibition data (Ki). As for the experimental part:
as §1, §2, §3

JAK-2 enzyme, sequence (O60674 whole entry, species assumed): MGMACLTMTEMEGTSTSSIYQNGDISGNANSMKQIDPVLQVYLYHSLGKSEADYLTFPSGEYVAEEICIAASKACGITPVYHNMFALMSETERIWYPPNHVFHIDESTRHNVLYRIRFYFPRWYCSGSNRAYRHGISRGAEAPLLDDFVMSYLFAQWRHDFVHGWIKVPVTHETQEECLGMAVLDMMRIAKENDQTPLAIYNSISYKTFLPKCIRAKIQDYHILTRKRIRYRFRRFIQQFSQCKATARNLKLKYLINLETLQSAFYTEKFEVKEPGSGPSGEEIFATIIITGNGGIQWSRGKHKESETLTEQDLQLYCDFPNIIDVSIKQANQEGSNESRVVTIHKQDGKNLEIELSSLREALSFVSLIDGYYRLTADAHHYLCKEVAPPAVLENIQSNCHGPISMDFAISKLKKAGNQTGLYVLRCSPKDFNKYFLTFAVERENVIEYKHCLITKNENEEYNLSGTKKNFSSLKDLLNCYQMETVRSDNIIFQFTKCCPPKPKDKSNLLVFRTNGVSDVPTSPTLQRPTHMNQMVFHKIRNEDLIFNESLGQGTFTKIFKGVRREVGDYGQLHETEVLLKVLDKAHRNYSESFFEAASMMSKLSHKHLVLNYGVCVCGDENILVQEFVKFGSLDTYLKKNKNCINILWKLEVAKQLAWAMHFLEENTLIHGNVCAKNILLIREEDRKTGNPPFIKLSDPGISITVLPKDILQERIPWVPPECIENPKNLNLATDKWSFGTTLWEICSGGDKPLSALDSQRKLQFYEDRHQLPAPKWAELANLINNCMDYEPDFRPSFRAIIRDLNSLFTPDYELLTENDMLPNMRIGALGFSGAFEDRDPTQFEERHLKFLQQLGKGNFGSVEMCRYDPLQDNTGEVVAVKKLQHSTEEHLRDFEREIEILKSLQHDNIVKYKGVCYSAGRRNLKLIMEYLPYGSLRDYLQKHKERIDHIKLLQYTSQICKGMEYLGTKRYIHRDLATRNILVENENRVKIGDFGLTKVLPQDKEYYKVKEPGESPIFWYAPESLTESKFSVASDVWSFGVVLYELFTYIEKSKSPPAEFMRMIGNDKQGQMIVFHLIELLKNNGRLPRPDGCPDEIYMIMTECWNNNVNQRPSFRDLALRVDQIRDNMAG

As to `CN(CC(F)(F)F)C(=O)c1ccc(-c2ncnc3[nH]ccc23)o1` [Compound 127], the Ki on JAK-2 enzyme and at JAK3 was under 100 nM in each case.

On to `Nc1[nH]ncc1-c1ncnc2[nH]ccc12` [Compound 130], for which the Ki at JAK-2 enzyme and on JAK3 was 100 to 500 nM in each case.

On to `C#CCNC(=O)c1cc(-c2ncnc3[nH]ccc23)c[nH]1` [Compound 14], for which the Ki at JAK-2 enzyme is under 100 nM; at JAK3, 100 to 500 nM.

`N#CCN(Cc1ccc(F)cc1)C(=O)c1cc(-c2ncnc3[nH]ccc23)c[nH]1` [Compound 112]: the Ki at JAK-2 enzyme and at JAK3 was under 100 nM throughout.

Regarding `O=C(c1ccc(-c2ncnc3[nH]ccc23)o1)N(CC1CCC1)CC(F)(F)F` [Compound 216], the Ki on JAK-2 enzyme and on JAK3 was under 100 nM throughout.

For the molecule `O=C(Nc1nc(-c2ncnc3[nH]ccc23)cs1)C1CCCNC1` (stereo not shown) [Compound 176], the Ki on JAK-2 enzyme and on JAK3 was under 100 nM each time.

For `Cn1cc(-c2ncnc3[nH]ccc23)cc1C(=O)N(CCC#N)CC1CC1` [Compound 226], the Ki at JAK-2 enzyme and on JAK3 was under 100 nM throughout.

On to `CC(C)CNC(=O)C(C)n1cc(-c2ncnc3[nH]ccc23)cn1` (stereo not shown) [Compound 74], for which the results for the Ki at JAK-2 enzyme and at JAK3 were 100 to 500 nM and under 100 nM, respectively.

Consider `CCC(C)CC(=O)Nc1nc(-c2ncnc3[nH]ccc23)cs1` (stereo not shown) [Compound 98], for which the Ki on JAK-2 enzyme and on JAK3 was under 100 nM throughout.

For the molecule `CC(C(=O)NCc1ccccc1)n1cc(-c2ncnc3[nH]ccc23)cn1` (stereo not shown) [Compound 86], the Ki on JAK-2 enzyme and on JAK3 was 100 to 500 nM throughout.

As for `CCCCCN(C)C(=O)c1cc(-c2ncnc3[nH]cc(C)c23)c[nH]1` [Compound 205], the Ki at JAK-2 enzyme was under 100 nM; on JAK3, 100 to 500 nM.

On to `CCCN(CC)C(=O)c1cc(-c2ncnc3[nH]cc(C)c23)c[nH]1` [Compound 206], for which the Ki was under 100 nM on JAK-2 enzyme and 100 to 500 nM at JAK3.

Turning to `C=CC(=O)c1c[nH]c2ncnc(-c3ccoc3)c12` [Compound 253], the results for the Ki on JAK-2 enzyme and at JAK3 were 500 to 5000 nM and 100 to 500 nM, respectively.

For the molecule `CN(CCc1ccccn1)C(=O)c1cc(-c2ncnc3[nH]ccc23)c[nH]1` [Compound 46], the Ki at JAK-2 enzyme and at JAK3 was 100 to 500 nM throughout.

In the case of `COCCN(CCOC)C(=O)c1cc(-c2ncnc3[nH]ccc23)c[nH]1` [Compound 25], the Ki is under 100 nM at JAK-2 enzyme and 100 to 500 nM at JAK3.

On to `CC(C)NC(=O)C(C)n1cc(-c2ncnc3[nH]ccc23)cn1` (stereo not shown) [Compound 78], for which the Ki on JAK-2 enzyme and on JAK3 was 100 to 500 nM in each case.

Regarding `C[C@@H]1CC[C@@H](C)N1C(=O)c1cc(-c2ncnc3[nH]ccc23)cn1C` [Compound 224], the Ki at JAK-2 enzyme was under 100 nM; on JAK3, 100 to 500 nM.

On to `O=C(c1cc(-c2ncnc3[nH]ccc23)co1)N(CC1CCC1)CC(F)(F)F` [Compound 251], for which the Ki at JAK-2 enzyme and at JAK3 was 100 to 500 nM in each case.

Regarding `CCC(C)n1cc(-c2ncnc3[nH]ccc23)cn1` (stereo not shown) [Compound 35], the Ki at JAK-2 enzyme and at JAK3 was under 100 nM in each case.

For the molecule `CCCN(C)C(=O)c1cc(-c2ncnc3[nH]ccc23)cn1C` [Compound 234], the Ki on JAK-2 enzyme is under 100 nM; at JAK3 it was 500 to 5000 nM.

Regarding `CCC(CC)n1cc(-c2ncnc3[nH]ccc23)cn1` [Compound 39], the Ki at JAK-2 enzyme and at JAK3 was under 100 nM each time.

Consider `FC(F)(F)CN(Cc1coc(-c2ncnc3[nH]ccc23)c1)CC1CC1` [Compound 131], for which the Ki at JAK-2 enzyme and at JAK3 was under 100 nM throughout.

`CC1CCC(C)N1C(=O)c1cc(-c2ncnc3[nH]ccc23)c[nH]1` (stereo not shown) [Compound 54]: the Ki at JAK-2 enzyme and on JAK3 was under 100 nM in each case.

Regarding `N#CCCN(CCC(F)(F)F)C(=O)c1cc(-c2ncnc3[nH]cc(Cl)c23)c[nH]1` [Compound 242], the Ki at JAK-2 enzyme and at JAK3 was under 100 nM in each case.

Regarding `O=C(c1ccc(-c2ncnc3[nH]ccc23)o1)N1CCCC1` [Compound 219], the results for the Ki at JAK-2 enzyme and on JAK3 were 100 to 500 nM and 500 to 5000 nM, respectively.

Consider `c1nc(-c2cnn(C3CCCC3)c2)c2cc[nH]c2n1` [Compound 36], for which the Ki on JAK-2 enzyme and on JAK3 was under 100 nM each time.

For the molecule `CCC(O)CNC(=O)C(C)n1cc(-c2ncnc3[nH]ccc23)cn1` (stereo not shown) [Compound 83], the Ki on JAK-2 enzyme fell in the range of 500 to 5000 nM; at JAK3, 100 to 500 nM.

For the molecule `CCCC(CC)n1cc(-c2ncnc3[nH]ccc23)cn1` (stereo not shown) [Compound 94, 4-(1-(hexan-3-yl)-1H-pyrazol-4-yl)-7H-pyrrolo[2,3-d]pyrimidine], the Ki at JAK-2 enzyme and at JAK3 was under 100 nM each time.

Consider `O=C(O)CCC(=O)Nc1nc(-c2ncnc3[nH]ccc23)cs1` [Compound 146], for which the Ki at JAK-2 enzyme and at JAK3 was 100 to 500 nM each time.

For `O=C(c1cc(-c2ncnc3[nH]ccc23)c[nH]1)N(CC1CC1)CC(F)(F)F` [Compound 109], the Ki on JAK-2 enzyme and at JAK3 was under 100 nM each time.

Consider `CC(C)n1cc(-c2ncnc3[nH]ccc23)cn1` [Compound 34], for which the inhibition constant Ki at JAK-2 enzyme and on JAK3 was under 100 nM each time.

Regarding `O=C(CC(F)(F)F)Nc1nc(-c2ncnc3[nH]ccc23)cs1` [Compound 64], the Ki on JAK-2 enzyme and on JAK3 was under 100 nM throughout.

With `CCC(CC)NC(=O)c1cc(-c2ncnc3[nH]ccc23)c[nH]1` [Compound 11], the Ki on JAK-2 enzyme is under 100 nM; on JAK3 it was 100 to 500 nM.

For the molecule `C=CCN(C(=O)CC(C)C)c1nc(-c2ncnc3[nH]ccc23)cs1` [Compound 128], the Ki at JAK-2 enzyme and at JAK3 was under 100 nM each time.

With `CSCCNC(=O)C(C)n1cc(-c2ncnc3[nH]ccc23)cn1` (stereo not shown) [Compound 84], the Ki at JAK-2 enzyme and on JAK3 was 100 to 500 nM each time.

`CCN(Cc1ccccc1)C(=O)c1cc(-c2ncnc3[nH]cc(Cl)c23)c[nH]1` [Compound 199]: the Ki on JAK-2 enzyme and on JAK3 was under 100 nM each time.

As for `N#CCCN(Cc1ccccc1)C(=O)c1cc(-c2ncnc3[nH]ccc23)c[nH]1` [Compound 29], the Ki at JAK-2 enzyme and on JAK3 was under 100 nM in each case.

Take `CCC(CO)NC(=O)C(C)n1cc(-c2ncnc3[nH]ccc23)cn1` (stereo not shown) [Compound 82]: the Ki on JAK-2 enzyme and on JAK3 was 100 to 500 nM each time.

As for `COCCNC(=O)C(C)n1cc(-c2ncnc3[nH]ccc23)cn1` (stereo not shown) [Compound 81], the Ki at JAK-2 enzyme and at JAK3 was 500 to 5000 nM each time.

Turning to `O=C(c1coc(-c2ncnc3[nH]ccc23)c1)N(CCC(F)(F)F)CC1CC1` [Compound 196], the Ki on JAK-2 enzyme is under 100 nM; on JAK3, 100 to 500 nM.

`O=C(c1cc(-c2ncnc3[nH]ccc23)c[nH]1)N1CCC(O)C1` (stereo not shown) [Compound 45]: the Ki on JAK-2 enzyme and on JAK3 was 500 to 5000 nM each time.

`O=C(c1cc(-c2ncnc3[nH]ccc23)c[nH]1)N(CCC(F)(F)F)Cc1ccccc1` [Compound 108]: the Ki on JAK-2 enzyme and at JAK3 was under 100 nM in each case.

Turning to `COCCN(C)C(=O)c1cc(-c2ncnc3[nH]cc(C)c23)c[nH]1` [Compound 200], the Ki at JAK-2 enzyme fell in the range of 100 to 500 nM; on JAK3, 500 to 5000 nM.

On to `CCCN(CCC#N)C(=O)c1cc(-c2ncnc3[nH]ccc23)c[nH]1` [Compound 21], for which the Ki at JAK-2 enzyme and on JAK3 was under 100 nM each time.

These data come from patent US20090227607A1, “DEAZAPURINES USEFUL AS INHIBITORS OF JANUS KINASES” (priority 2006, published 2009).
